Assays:
[1] = Storage stability of the emulsion (HPLC); format: physicochemical; settings: for Storage stability: Decomposition reaction rate constant: 40° C., calculated from change with time of remaining rate; for Storage stability: Remaining rate: emulsion stored 4 weeks at 40° C., 40320 min
Experimental: | Storage stability: | Stored for 4 weeks under a temperature condition of 40° C., and th | remaining rate (%) after the 4 weeks was measured. Further, from the | change with time of the remaining rate, the decomposition reaction rate | constant was calculated. The stability during the preparation and the remaining rate in the storage stability was measured by a separation quantitative analysis by means of high performance liquid chromatography, and the ratio of the measured amount relative to the amount at the initiation of the test was taken as the remaining rate.

platelet aggregation = assay: Platelet aggregation inhibiting effect, ADP-induced, platelet rich plasma; format: cell-based; settings: 20 μM ADP, relative to physiological saline
Experimental: Further, the platelet aggregation inhibiting effects were measured as follows, and the results are shown also in Table 3.
Using sodium citrate (3.8%), peripheral blood was collected (blood 9, sodium citrate 1). This peripheral blood was subjected to centrifugal separation at 1000 rpm for 10 minutes to obtain a platelet rich plasma, and the rest was subjected to centrifugal separation at 3000 rpm for 20 minutes to obtain a plate poor plasma. To 225 μl of the platelet rich plasma, 50 μl of a test sample was added. One minute later, platelet aggregation was induced with 20 μMADP solution 25, whereupon the aggregation inhibitory rate (%) was calculated based on the aggregation rate when a physiological saline solution was added instead of the test sample, being rated as 100%.

[2] = Stability of the PG analogue during the preparation of the emulsion (HPLC); format: physicochemical; settings: lipid emulsion prepared at 90° C., final concentration 5 μg/ml
Experimental: To 500 μg of the PG analogue of the formula (2) of the present invention produced as described above, 10 g of purified soybean oil and 1.2 g of purified yolk lecitin were added, and the mixture was melted under heating at 90° C. by means of a homogenizer at 90° C. Then, 2.5 g of glycerol and 90 ml of distilled water for injection were added thereto, followed by rough emulsification by means of a homogenizer at […]. The product is then emulsified by means of a manton gaulin type homogenizer to obtain an emulsion having a final concentration of 5 μg/ml.
The stability of the PG analogue of the present invention during the preparation of the emulsion and the storage stability of the emulsion were measured, and the results are shown in Table 3.
The stability during the preparation and the remaining rate in the storage stability was measured by a separation quantitative analysis by means of high performance liquid chromatography, and the ratio of the measured amount relative to the amount at the initiation of the test was taken as the remaining rate.

[3] = 1.6% BSA-saline solution, mean ± SE, n = 4-7, cited from earlier work
[4] = system: human platelet aggregation; settings: Table 1(b), activity of PGE1 rated 100, cited from earlier work; for Inhibitory effects against human platelet aggregation (relative activity): (no incubation stated)

| SMILES | Storage stability: Decomposition reaction rate constant [1] [d^-1 × 10^3] | Storage stability: Remaining rate [1] [%] | Platelet aggregation inhibitory effects (platelet aggregation) [%] | Stability during the preparation [2] [%] | % of PGE1 (or ester) liberated from LM, 1 min incubation [3] [%] | % of PGE1 (or ester) liberated from LM, 10 min incubation [3] [%] | Inhibitory effects against human platelet aggregation (relative activity) [4] | Inhibitory effects against human platelet aggregation (relative activity), after incubating in human serum for 20 min [4] |
| --- | --- | --- | --- | --- | --- | --- | --- | --- |
| CCCCOC(=O)CCCCCCC1=C(OC(C)=O)C[C@@H](O)[C@@H]1/C=C/[C@@H](O)C[C@@H](C)CCCC [Example 1, butyl 9-actoxy-11α,15S-dihyroxy-17S,20-dimethylprosta-8-13E-diene-1-oate] | 6.20 | 84.8 | 37 | 75.6 | – | – | – | – |
| CCCCC[C@H](O)/C=C/[C@@H]1C(CCCCCCC(=O)OC)=C(OC(C)=O)C[C@H]1O [Example 2, methyl 9-acetoxy-11α,15S-dihydroxyprosta-9,13E-diene-1-oate] | 11.8 | 72.7 | 100 | 70.4 | – | – | – | – |
| CCCCC[C@H](O)/C=C/[C@@H]1C(CCCCCCC(=O)OCCCC)=C(OC(C)=O)C[C@H]1O [Example 3, butyl 9-acetoxy-11α,15S-dihydroxyprosta-8,13E-diene-1-oate] | 8.30 | 80.1 | 93 | 72.1 | – | – | – | – |
| CCCC[C@H](C)C[C@H](O)/C=C/[C@@H]1C(CCCCCCC(=O)OC)=C(OC(C)=O)C[C@H]1O [Example 4, methyl 9-acetoxy-11α,15S-dihyroxy-17S,20-dimethylprosta-8,13E-diene-1-oate] | 8.87 | 77.9 | 44 | 68.3 | – | – | – | – |
| CCCCC[C@H](O)/C=C/[C@H]1[C@H](O)CC(=O)[C@@H]1CCCCCCC(=O)OCCCC [PGE1 butyl ester] | – | – | – | – | 60.5 ± 4.0 | 65.3 ± 5.6 | 29 | 89 |
| CCCCC[C@H](O)/C=C/[C@H]1[C@H](O)CC(=O)[C@@H]1CCCCCCC(=O)OCC [PGE1 ethyl ester] | – | – | – | – | 82.0 ± 8.8 | 125.4 ± 11.7 | 20 | 28 |
| CCCCC[C@H](O)/C=C/[C@H]1[C@H](O)CC(=O)[C@@H]1CCCCCCC(=O)OC [PGE1 methyl ester] | – | – | – | – | 82.5 ± 3.8 | 80.4 ± 2.9 | 23 | 51 |
| CCCCCCCCOC(=O)CCCCCC[C@H]1C(=O)C[C@@H](O)[C@@H]1/C=C/[C@@H](O)CCCCC [PGE1 octyl ester] | – | – | – | – | – | – | – | 4 |
| CCCCC[C@H](O)/C=C/[C@H]1[C@H](O)CC(=O)[C@@H]1CCCCCCC(=O)O [PGE1] | 113 | 4.6 | 55 | 43.9 | – | – | – | – |
